Experimental data reported in US7968525B1, “Use of RNA interference to validate new termiticide target sites and a method of termite control” (University of Florida Research Foundation, Inc., priority 2007, dated 2011).

Key:
termite = conditions: bioassays, earlier work; cited from earlier work
beta glucosidase = conditions: in vitro enzyme assays, earlier work; cited from earlier work
exoglucanases = conditions: in vitro enzyme assays, earlier work; cited from earlier work
R. flavipes workers [1] = assay: Hex-2 dsRNA feeding bioassay with and without JH (morphology, lethal molts); format: in vivo, Reticulitermes flavipes; conditions: feeding on Hex-2 dsRNA alone or JH alone
Description: dsRNA Feeding bioassays. dsRNA-mediated gene silencing was accomplished using voluntary feeding bioassays. Termites were pre-starved for 12 h to standardize their hunger status before the assay. The bioassay was run by placing groups of 15 worker termites into 35-mm tissue culture dishes that contained 18 mm diam. treated paper towel disks. Multiple and single dose dsRNA regimes were tested. All assays were carried out for 24-d. Paper disk moisture was monitored every other day. Every 8th day, old paper disks were replaced with new ones. These new paper disks were treated exactly the same as previous ones. Feeding (mg/dish) was determined by comparing weights of paper disks before and after confinement with termites, whereas body weight (mg/termite) was measured by comparing termite weights before and after 8-day paper consumption and then by correcting for the number of live termites at the time of sampling. Paper disks were dried in a drying oven before weighing. Mortality, paper consumption, body weight change, and/or presoldier formation were documented every 8th day. The complete experimental design included two colonies (Colony-1 and -2), with three replicate dishes per treatment per colony.
For Cell-1 dsRNA feeding bioassays, the experimental design included two treatments (triple and single dose Cell-1 dsRNA) and a control (3 doses of dsRNA buffer; Ambion; Austin, Tex.). […]

R. flavipes workers [2] = assay: dsRNA + JH III feeding assay, lethal times by probit analysis; format: in vivo, Reticulitermes flavipes; conditions: JH III alone
Description: Six additional developmental genes were targeted by combined dsRNA+JH III treatments: broad, farnesoic acid methyl transferase (FAMET-2), two family 15 cytochrome P450s (Cyp15-1, Cyp15-2), and two vitellogenin genes (Vit-1, Vit-2). dsRNAs corresponding to internal 500 base pair fragments of all six genes (see FIG. 22) were prepared as described under “description of the preferred embodiment”. Twenty μg of dsRNA was applied in 50 μL nanopure water to a penny-sized ([…]) paper disk. The disk was placed in a 5 cm tissue culture dish and 15 worker termites were added. Assays ran for 25 days at 60% relative humidity and 27 degrees C., with water being replenished and mortality/presoldier formation scored every 5th day.
LT50 and LT90 were determined from time-mortality data using probit analysis (SAS software; Cary, N.C.). In this context, the terms LT50 and LT90 refer to the estimated times at which 50% and 90% mortality occurs in response to the various RNAi treatments relative to JH III treatments alone (FIG. 23). Applying the six dsRNAs alone had no significant effects on survivorship. The LT50 and LT90 values for JH III alone were 34.5 and 65.7 days, respectively (as a result of fitness costs from elevated presoldier levels).

Row | Molecule | termite mortality (termite) | inhibition of beta glucosidase activity (beta glucosidase) | inhibition of exoglucanases activity (exoglucanases) | caste phenotype induced (R. flavipes workers [1]) | LT50 (R. flavipes workers [2]; time to 50% mortality) [days] | LT90 (R. flavipes workers [2]; time to 90% mortality) [days]
1 | OC[C@@H]1[C@@H](O[C@@H]2O[C@H](CO)[C@@H](O)[C@H](O)[C@H]2O)[C@H](O)[C@@H](O)c2nccn21 [CBI, cellobioimidazole] | only moderate termite mortality | Good to excellent inhibition | Good to excellent inhibition |  |  | 
2 | COC(=O)/C=C(\C)CC/C=C(\C)CC[C@H]1OC1(C)C [JH III, juvenile hormone III] |  |  |  | wildtype caste phenotypes | 34.5 | 65.7
3 | fluromethyl cellobiose [FMCB] | only moderate termite mortality | Good to excellent inhibition | Good to excellent inhibition |  |  | 
